One data set is classed as physicochemical. Conditions: HPLC on reversed phase columns, method [a]: pH 2.7, 0.1% formic acid in water / acetonitrile, linear gradient 10% to 95% acetonitrile.
For the molecule `CC1(C(=O)NC(C#N)c2ccccc2)CC(c2ccc3ncc(Br)cc3c2)=NO1` (stereo not shown) [compound 356], the “log P” value was 3.25[a].
The same measure, in the same setting: for `Cc1cccc(C(NC(=O)C2(C)CC(c3ccc4ncc(Br)cc4c3)=NO2)C(F)(F)F)c1` (stereo not shown) [compound 358] the value was 4.36[a]; for `C#Cc1cnc2ccc(C3=NOC(C)(C(=O)NC(CN(C)c4ccccc4)C4CC4)C3)cc2c1` (stereo not shown) [compound 359], 3.69[a].
On to `CC1(C(=O)NC(c2cccc(Cl)c2)C(F)(F)F)CC(c2ccc3ncc(Br)cc3c2)=NO1` (stereo not shown) [compound 360], for which the “log P” value was 4.39[a].
The same measure, in the same setting: for `C#Cc1cnc2ccc(C3=NOC(C)(C(=S)NCC4COC(C)(C)O4)C3)cc2c1` (stereo not shown) [compound 513] the value was 3.44[a]; for `C=C(C)C1(C(=O)NCCCOCC)CC(c2ccc3ncc(Br)cc3c2)=NO1` (stereo not shown) [compound 518], 3.37[a]; for `C=C(C)C1(C(=O)NCc2cn(CCC)nc2C)CC(c2ccc3ncc(Br)cc3c2)=NO1` (stereo not shown) [compound 519], 3.17[a].
On to `C=C(C)C1(C(=O)NC2CCC2)CC(c2ccc3ncc(Br)cc3c2)=NO1` (stereo not shown) [compound 521], for which the “log P” value is 3.61[a].
On the same count and under the same terms, next, `C=C(C)C1(C(=O)NCc2cn(CC)nc2C)CC(c2ccc3ncc(Br)cc3c2)=NO1` (stereo not shown) [compound 526]: 2.91[a]; `CC(C)NC(=O)C1(C(C)O)CC(c2ccc3ncc(Br)cc3c2)=NO1` (stereo not shown) [compound 552]: 2.23[a].
For the molecule `CC(O)C1(C(=O)NC2CCC2)CC(c2ccc3ncc(Br)cc3c2)=NO1` (stereo not shown) [compound 563], the “log P” value is 2.41[a].
In the case of `C#Cc1cnc2c(C)cc(C3=NOC(C)(C(=O)NC(C)C)C3)cc2c1` (stereo not shown) [compound 571], the “log P” value is 3.06[a].
Still for that read-out and setting: next, `Cc1cc(C2=NOC(C)(C(=O)NC(C)C)C2)cc2cc(Br)cnc12` (stereo not shown) [compound 573]: 3.51[a]; `COC1(C(=O)NCc2cnc(C)cn2)CC(c2cc(Cl)c3ncc(Br)cc3c2)=NO1` (stereo not shown) [compound 575]: 2.62[a]; `COC1(C(=O)NC2CCC2)CC(c2cc(Cl)c3ncc(Br)cc3c2)=NO1` (stereo not shown) [compound 576]: 3.33[a].
On the same count and under the same terms, for `CCOCCCNC(=O)C1(OC)CC(c2cc(Cl)c3ncc(Br)cc3c2)=NO1` (stereo not shown) [compound 577] the value was 3.19[a]; for `C#Cc1cnc2c(C)cc(C3=NOC(C)(C(=O)NC4CCC4)C3)cc2c1` (stereo not shown) [compound 578], 3.25[a]; for `Cc1cc(C2=NOC(C)(C(=O)NC3CCC3)C2)cc2cc(Br)cnc12` (stereo not shown) [compound 579], 3.71[a].
Consider `CCn1cc(CNC(=O)C2(C)CC(c3cc(C)c4ncc(Br)cc4c3)=NO2)c(C)n1` (stereo not shown) [compound 580], for which the “log P” value was 2.96[a].
Regarding `C#Cc1cnc2c(C)cc(C3=NOC(C)(C(=O)NCc4cn(CC)nc4C)C3)cc2c1` (stereo not shown) [compound 581], the “log P” value was 2.62[a].
The same measure, in the same setting: next, `CCOCCCNC(=O)C1(C(C)=O)CC(c2ccc3ncc(Br)cc3c2)=NO1` (stereo not shown) [compound 582]: 2.90[a]; `CC(=O)C1(C(=O)NC2CCC2)CC(c2ccc3ncc(Br)cc3c2)=NO1` (stereo not shown) [compound 583]: 3.06[a]; `CC(=O)C1(C(=O)NCc2cnc(C)cn2)CC(c2ccc3ncc(Br)cc3c2)=NO1` (stereo not shown) [compound 584]: 2.37[a].
For the molecule `CCn1cc(CNC(=O)C2(C(C)=O)CC(c3ccc4ncc(Br)cc4c3)=NO2)c(C)n1` (stereo not shown) [compound 585], the “log P” value was 2.53[a].
Turning to `CCCn1cc(CNC(=O)C2(C(C)=O)CC(c3ccc4ncc(Br)cc4c3)=NO2)c(C)n1` (stereo not shown) [compound 586], the “log P” value was 2.80[a].
Take `C#Cc1cnc2c(Cl)cc(C3=NOC(OC)(C(=O)NCc4cn(CC)nc4C)C3)cc2c1` (stereo not shown) [compound 587]: the “log P” value was 2.53[a].
Same read-out and setting: next, `C#Cc1cnc2c(Cl)cc(C3=NOC(OC)(C(=O)NCc4cn(CCC)nc4C)C3)cc2c1` (stereo not shown) [compound 588]: 2.80[a].
`C#Cc1cnc2c(Cl)cc(C3=NOC(OC)(C(=O)NCC4COC(C)(C)O4)C3)cc2c1` (stereo not shown) [compound 589]: the “log P” value is 2.82[a].
On the same count and under the same terms, for `C#Cc1cnc2c(Cl)cc(C3=NOC(OC)(C(=O)NC(C)C)C3)cc2c1` (stereo not shown) [compound 590] the value was 2.84[a]; for `C#Cc1cnc2c(Cl)cc(C3=NOC(OC)(C(=O)NCc4cnc(C)cn4)C3)cc2c1` (stereo not shown) [compound 591], 2.37[a].
For the molecule `C#Cc1cnc2c(Cl)cc(C3=NOC(OC)(C(=O)NC4CCC4)C3)cc2c1` (stereo not shown) [compound 592], the “log P” value was 3.02[a].
Still for that read-out and setting: for `C#Cc1cnc2c(Cl)cc(C3=NOC(OC)(C(=O)NCCCOCC)C3)cc2c1` (stereo not shown) [compound 594] the value was 2.88[a]; for `C#Cc1cnc2ccc(C3=NOC(C)(C(=O)NC4CCN(C)CC4)C3)cc2c1` (stereo not shown) [compound 598], 1.17[a].
In the case of `CCn1cc(CNC(=O)C2(OC)CC(c3cc(C)c4ncc(Br)cc4c3)=NO2)c(C)n1` (stereo not shown) [compound 600], the “log P” value is 2.96[a].
Regarding `COC1(C(=O)NCC2COC(C)(C)O2)CC(c2cc(C)c3ncc(Br)cc3c2)=NO1` (stereo not shown) [compound 601], the “log P” value is 3.33[a].
On the same count and under the same terms, for `COC1(C(=O)NC2CCC2)CC(c2cc(C)c3ncc(Br)cc3c2)=NO1` (stereo not shown) [compound 603] the value was 3.58[a]; for `C#Cc1cnc2c(C)cc(C3=NOC(OC)(C(=O)NC(C)C)C3)cc2c1` (stereo not shown) [compound 604], 2.94[a].
The same measure, in the same setting: next, `C#Cc1cnc2c(C)cc(C3=NOC(OC)(C(=O)NCC4COC(C)(C)O4)C3)cc2c1` (stereo not shown) [compound 605]: 2.92[a].
For the molecule `C#Cc1cnc2c(C)cc(C3=NOC(OC)(C(=O)NCCCOCC)C3)cc2c1` (stereo not shown) [compound 607], the “log P” value was 3.00[a].
Regarding `COC1(C(=O)NC(C)C)CC(c2cc(C)c3ncc(Br)cc3c2)=NO1` (stereo not shown) [compound 608], the “log P” value was 3.37[a].
On the same count and under the same terms, for `C#Cc1cnc2c(C)cc(C3=NOC(OC)(C(=O)NCc4cn(CC)nc4C)C3)cc2c1` (stereo not shown) [compound 609] the value was 2.62[a].
On the same count and under the same terms, for `C#Cc1cnc2c(C)cc(C3=NOC(OC)(C(=O)NCc4cn(CCC)nc4C)C3)cc2c1` (stereo not shown) [compound 610] the value was 2.90[a]; for `C#Cc1cnc2c(C)cc(C3=NOC(OC)(C(=O)NCc4cnc(C)cn4)C3)cc2c1` (stereo not shown) [compound 611], 2.46[a].
Still for that read-out and setting: for `C#Cc1cnc2c(C)cc(C3=NOC(OC)(C(=O)NC4CCC4)C3)cc2c1` (stereo not shown) [compound 612] the value was 3.15[a]; for `C#Cc1cnc2ccc(C3=NOC(C(=O)NC(C)C)(C(F)F)C3)cc2c1` (stereo not shown) [compound 616], 2.73[a].
For the molecule `CC(C)NC(=O)C1(C(F)F)CC(c2ccc3ncc(I)cc3c2)=NO1` (stereo not shown) [compound 620], the “log P” value is 3.17[a].
The same measure, in the same setting: for `CC1(C)OCC(CNC(=O)C2(C(F)F)CC(c3ccc4ncc(Br)cc4c3)=NO2)O1` (stereo not shown) [compound 622] the value was 2.96[a]; for `C#CC(C)(C)NC(=O)C1(C)CC(c2ccc3ncc(Br)cc3c2)=NO1` (stereo not shown) [compound 624], 3.08[a]; for `C#CC1(C(=O)NC2CCC2)CC(c2ccc3ncc(Br)cc3c2)=NO1` (stereo not shown) [compound 625], 3.11[a].

Still in this data set, the particulars now being: method [a]: HPLC/LC-MS on reversed phase at pH 2.7, 0.1% formic acid in water / acetonitrile, gradient 10% to 95% acetonitrile.
With `CN(CC(NC(=O)C1(C)CC(c2ccc3ncc(Br)cc3c2)=NO1)C1CC1)c1ccccc1` (stereo not shown) [compound 362], the “log P” value is 4.19[a].
The same measure, in the same setting: for `CC1(C(=O)NC(CN2CCCC2)C2CC2)CC(c2ccc3ncc(Br)cc3c2)=NO1` (stereo not shown) [compound 364] the value was 1.53[a].
The same measure, in the same setting: for `CC(C)NC(=O)C1(C[Si](C)(C)C)CC(c2ccc3ncc(Br)cc3c2)=NO1` (stereo not shown) [compound 395] the value was 4.66[a]; for `C#Cc1cc2cc(C3=NOC(C)(C(=O)NC(C)C)C3)ccc2nc1C#N` (stereo not shown) [compound 404], 2.77[a].
Still for that read-out and setting: next, `CCn1cc(CNC(=O)C2(C)CC(c3ccc4ncc(C(F)=CC(F)(F)F)cc4c3)=NO2)c(C)n1` (stereo not shown) [compound 405]: 2.84[a]; `CCn1cc(CNC(=O)C2(C[Si](C)(C)C)CC(c3ccc4ncc(Br)cc4c3)=NO2)c(C)n1` (stereo not shown) [compound 413]: 2.83[a]; `CCn1cc(CNC(=O)C2(C)CC(c3ccc4ncc(NC(=O)OC(C)(C)C)cc4c3)=NO2)c(C)n1` (stereo not shown) [compound 421]: 2.44[a].
For `C#Cc1cnc2ccc(C3=NOC(C)(C(=O)NC(COC)COC)C3)cc2c1` (stereo not shown) [compound 459], the “log P” value is 2.30[a].
Take `C#Cc1cnc2ccc(C3=NOC(C)(C(=O)NC4=NCCO4)C3)cc2c1` (stereo not shown) [compound 460]: the “log P” value was 1.52[a].
Still for that read-out and setting: for `CCn1cc(CNC(=S)C2(OC)CC(c3ccc4ncc(Br)cc4c3)=NO2)c(C)n1` (stereo not shown) [compound 478] the value was 3.15[a]; for `CC1(C(=O)NCc2ccsc2)CC(c2ccc3ncc(Br)cc3c2)=NO1` (stereo not shown) [compound 479], 3.07[a].
Still for that read-out and setting: next, `CCn1cc(CNC(=O)C2(C)CC(c3ccc4nc(C(N)=O)c(I)cc4c3)=NO2)c(C)n1` (stereo not shown) [compound 484]: 1.60[a]; `COc1nc2ccc(C3=NOC(C)(C(=O)NC(C)C)C3)cc2cc1I` (stereo not shown) [compound 485]: 3.72[a]; `CC(C)NC(=O)C1(C)CC(c2ccc3nc(Cl)c(I)cc3c2)=NO1` (stereo not shown) [compound 486]: 3.50[a].
On the same count and under the same terms, next, `Cc1ncsc1CNC(=O)C1(C)CC(c2ccc3ncc(Br)cc3c2)=NO1` (stereo not shown) [compound 487]: 2.28[a]; `CC1(C(=O)NCc2nccs2)CC(c2ccc3ncc(Br)cc3c2)=NO1` (stereo not shown) [compound 488]: 2.32[a].
Take `CCn1nc(C)c(NC(=O)C2(C)CC(c3ccc4ncc(Br)cc4c3)=NO2)c1C` (stereo not shown) [compound 492]: the “log P” value was 2.41[a].
In the case of `CC1(C(=O)NC(C)(C)c2ccon2)CC(c2ccc3ncc(Br)cc3c2)=NO1` (stereo not shown) [compound 494], the “log P” value was 2.86[a].
With `CC1(C(=O)NC2=NCCO2)CC(c2ccc3ncc(Br)cc3c2)=NO1` (stereo not shown) [compound 495], the “log P” value was 1.71[a].
The same measure, in the same setting: next, `CCC1(C(=O)NCC2COC(C)(C)O2)CC(c2ccc3ncc(Br)cc3c2)=NO1` (stereo not shown) [compound 499]: 2.99[a]; `CC(C)NC(=O)C1(C)CC(c2ccc3nc(C#N)c(I)cc3c2)=NO1` (stereo not shown) [compound 510]: 3.04[a].

The record behind these values is patent publication US9510598B2, “Nitrogen-containing heterocyclic compounds for plant disease control” (BAYER CROPSCIENCE AG, priority 2012, dated 2016).
